Source: the SangsterLogP compilation

assay: from Suikov, S.; Kal'nits'kii, M.; Lutsik, O.; Plyushchakova, L.; Bondarenko, A.; Bogza, S.; Popov, A. (2007). Derivatives of 1,2,4-triazolo[4,3-b]pyridazin-6-ylhydrazine as a new training set for …

Q: For `COc1cccc(C(C)=NN=c2ccc3nncn3[nH]2)c1`, which logP is on record?
A: Its logP is 1.97.

Q: Which logP does the source give for `CC/C(=N/Nc1ccc2nncn2n1)c1ccccc1` here?
A: Its logP is 2.15.

Q: For `CC(=NN=c1ccc2nncn2[nH]1)c1cccc(O)c1`, which logP is on record?
A: Its logP is 1.46.

Q: With `CC(=NN=c1ccc2nncn2[nH]1)c1ccccn1` as the compound, how does the logP read?
A: The logP was 1.15.

Q: Which logP does the source give for `CC(=NN=c1ccc2nncn2[nH]1)c1ccc(O)cc1` here?
A: The logP was 1.45.

Q: With `CC(=NN=c1ccc2nncn2[nH]1)c1ccc(F)cc1` as the compound, how does the logP read?
A: The logP was 2.02.

Q: For `COc1ccccc1C(C)=NN=c1ccc2nncn2[nH]1`, which logP is on record?
A: The logP was 1.94.

Q: With `COc1cc(C=NN=c2ccc3nncn3[nH]2)cc(OC)c1OC` as the compound, how does the logP read?
A: Its logP is 1.53.

Q: Which logP does the source give for `CC(=NN=c1ccc2nncn2[nH]1)c1ccccc1O` here?
A: The logP was 1.89.

Q: For `CC(=NN=c1ccc2nncn2[nH]1)c1ccc(C)cc1`, which logP is on record?
A: Its logP is 2.2.

Q: Which logP does the source give for `CC(=NN=c1ccc2nncn2[nH]1)c1ccncc1` here?
A: The logP was 0.93.
